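A five-concentration, 48-hour dose response in 96-well plates underlies each endpoint, interpolated linearly between surrounding concentrations. Abbreviation: GI50, concentration required for 50% inhibition of growth.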 Active and inactive are the calls of the source. No stated cut-off is given here; in the data, active = GI50 up to about 1.1 µM and inactive = higher.
Legend:
Assay in all cases: NCI tumour cell line growth inhibition, 48 h
CAKI-1 = test system: CAKI-1
HCT-116 = test system: HCT-116
OVCAR-5 = test system: OVCAR-5
LOX IMVI = test system: LOX IMVI
HOP-62 = test system: HOP-62
A549 = test system: A549
SK-OV-3 = test system: SK-OV-3
M14 = test system: M14
KM-20L2 = test system: KM-20L2
TK-10 = test system: TK-10
OVCAR-3 = test system: OVCAR-3
NCI-H522 = test system: NCI-H522
SNB-75 = test system: SNB-75
SNB-19 = test system: SNB-19
IGROV-1 = test system: IGROV-1
M19-MEL = test system: M19-MEL
UACC-62 = test system: UACC-62
HT-29 = test system: HT-29
786-0 = test system: 786-0
SK-MEL-28 = test system: SK-MEL-28
NCI-H23 = test system: NCI-H23
Malme-3M = test system: Malme-3M
DMS-114 = test system: DMS-114
SNB-78 = test system: SNB-78
ACHN = test system: ACHN
HOP-18 = test system: HOP-18
SK-MEL-2 = test system: SK-MEL-2
LXFL 529 = test system: LXFL 529
HOP-92 = test system: HOP-92
CCRF-CEM = test system: CCRF-CEM
U-251 = test system: U-251
OVCAR-4 = test system: OVCAR-4
SN12C = test system: SN12C
RXF 631 = test system: RXF 631
RXF 393 = test system: RXF 393
SF-295 = test system: SF-295
MOLT-4 = test system: MOLT-4
HL-60 = test system: HL-60
HCT-15 = test system: HCT-15
SW-620 = test system: SW-620
DMS-273 = test system: DMS-273
A498 = test system: A498
DLD-1 = test system: DLD-1
SF-268 = test system: SF-268
EKVX = test system: EKVX
SR = test system: SR
UO-31 = test system: UO-31
NCI-H460 = test system: NCI-H460
UACC-257 = test system: UACC-257
RPMI-8226 = test system: RPMI-8226
HCC 2998 = test system: HCC 2998
KM12 = test system: KM12
K562 = test system: K562
SK-MEL-5 = test system: SK-MEL-5
SF-539 = test system: SF-539
NCI-H226 = test system: NCI-H226
OVCAR-8 = test system: OVCAR-8
COLO 205 = test system: COLO 205
XF498 = test system: XF498

For `Cc1ccc(C)c(NC(=O)C(=O)CC(=O)c2cccc3ccccc23)c1`, the GI50 (CAKI-1) was > 100 µM (inactive), the GI50 (HCT-116) was > 100 µM (inactive) and the GI50 (OVCAR-5) was > 100 µM (inactive). The GI50 (LOX IMVI) was > 100 µM (inactive), the GI50 (HOP-62) was > 100 µM (inactive) and the GI50 (A549) was > 100 µM (inactive). The GI50 (SK-OV-3) was > 100 µM (inactive), the GI50 (M14) was > 100 µM (inactive) and the GI50 (KM-20L2) was > 100 µM (inactive). The GI50 (TK-10) was > 100 µM (inactive), the GI50 (OVCAR-3) was > 100 µM (inactive) and the GI50 (NCI-H522) was > 100 µM (inactive). The GI50 (SNB-75) was > 100 µM (inactive), the GI50 (SNB-19) was > 100 µM (inactive) and the GI50 (IGROV-1) was > 100 µM (inactive). The GI50 (M19-MEL) was > 100 µM (inactive), the GI50 (UACC-62) was > 100 µM (inactive) and the GI50 (HT-29) was > 100 µM (inactive). The GI50 (786-0) was > 100 µM (inactive), the GI50 (SK-MEL-28) was > 100 µM (inactive) and the GI50 (NCI-H23) was > 100 µM (inactive). For the same compound, the GI50 (Malme-3M) was > 100 µM (inactive), the GI50 (DMS-114) was > 100 µM (inactive) and the GI50 (SNB-78) was > 100 µM (inactive). For the same compound, the GI50 (ACHN) was > 100 µM (inactive), the GI50 (HOP-18) was > 100 µM (inactive) and the GI50 (SK-MEL-2) was > 100 µM (inactive). The GI50 (LXFL 529) was > 100 µM (inactive), the GI50 (HOP-92) was > 100 µM (inactive) and the GI50 (CCRF-CEM) was > 100 µM (inactive). The GI50 (U-251) was > 100 µM (inactive), the GI50 (OVCAR-4) was > 100 µM (inactive) and the GI50 (SN12C) was > 100 µM (inactive). For the same compound, the GI50 (RXF 631) was > 100 µM (inactive), the GI50 (RXF 393) was > 100 µM (inactive) and the GI50 (SF-295) was > 100 µM (inactive). For the same compound, the GI50 (MOLT-4) was > 100 µM (inactive), the GI50 (HL-60) was > 100 µM (inactive) and the GI50 (HCT-15) was greater than 100 µM. For the same compound, the GI50 (SW-620) was > 100 µM (inactive), the GI50 (DMS-273) was > 100 µM (inactive) and the GI50 (A498) was > 100 µM (inactive). The GI50 (DLD-1) was > 100 µM (inactive), the GI50 (SF-268) was > 100 µM (inactive) and the GI50 (EKVX) was > 100 µM (inactive). The GI50 (SR) was > 100 µM (inactive), the GI50 (UO-31) was > 100 µM (inactive) and the GI50 (NCI-H460) was > 100 µM (inactive). For the same compound, the GI50 (UACC-257) was > 100 µM (inactive), the GI50 (RPMI-8226) was > 100 µM (inactive) and the GI50 (HCC 2998) was > 100 µM (inactive). The GI50 (KM12) was > 100 µM (inactive), the GI50 (K562) was > 100 µM (inactive) and the GI50 (SK-MEL-5) was > 100 µM (inactive). The GI50 (SF-539) was > 100 µM (inactive), the GI50 (NCI-H226) was > 100 µM (inactive) and the GI50 (OVCAR-8) was > 100 µM (inactive). For the same compound, the GI50 (COLO 205) was > 100 µM (inactive).

In the case of `CSC(=S)N/N=C/c1nccc2ccccc12`, the GI50 (CAKI-1) is reported as 2.34 µM (inactive), the GI50 (HCT-116) is reported as 1.25 µM (inactive) and the GI50 (OVCAR-5) is reported as 2.74 µM (inactive). The GI50 (LOX IMVI) was 1.49 µM (inactive), the GI50 (HOP-62) was 2.25 µM (inactive) and the GI50 (A549) was 1.65 µM (inactive). The GI50 (SK-OV-3) was 6.79 µM (inactive), the GI50 (M14) was 1.36 µM (inactive) and the GI50 (KM-20L2) was 0.43 µM (active). The GI50 (TK-10) was 7.08 µM (inactive), the GI50 (XF498) was 0.809 µM (active) and the GI50 (NCI-H522) was 0.34 µM (active). The GI50 (SNB-75) was 0.522 µM (active), the GI50 (SNB-19) was 2.29 µM (inactive) and the GI50 (IGROV-1) was 1.91 µM (inactive). For the same compound, the GI50 (M19-MEL) was 2.29 µM (inactive), the GI50 (UACC-62) was 1.29 µM (inactive) and the GI50 (HT-29) was 0.701 µM (active). The GI50 (786-0) was 2.39 µM (inactive), the GI50 (SK-MEL-28) was 2.19 µM (inactive) and the GI50 (NCI-H23) was 1.42 µM (inactive). For the same compound, the GI50 (Malme-3M) was 1.34 µM (inactive), the GI50 (DMS-114) was 0.627 µM (active) and the GI50 (SNB-78) was 3.18 µM (inactive). The GI50 (ACHN) was 1.23 µM (inactive), the GI50 (HOP-18) was 1.82 µM (inactive) and the GI50 (SK-MEL-2) was 1.07 µM (active). The GI50 (LXFL 529) was 0.488 µM (active), the GI50 (HOP-92) was 1.37 µM (inactive) and the GI50 (CCRF-CEM) was 0.115 µM (active). The GI50 (U-251) was 0.875 µM (active), the GI50 (OVCAR-4) was 1.16 µM (inactive) and the GI50 (SN12C) was 1.6 µM (inactive). The GI50 (RXF 631) was 4.69 µM (inactive), the GI50 (RXF 393) was 0.721 µM (active) and the GI50 (SF-295) was 1.48 µM (inactive). The GI50 (MOLT-4) was 0.204 µM (active), the GI50 (HL-60) was 0.372 µM (active) and the GI50 (HCT-15) was 3.45 µM. For the same compound, the GI50 (SW-620) was 0.631 µM (active), the GI50 (DMS-273) was 1.85 µM (inactive) and the GI50 (A498) was 2.45 µM (inactive). For the same compound, the GI50 (DLD-1) was 0.537 µM (active), the GI50 (SF-268) was 1.04 µM (active) and the GI50 (EKVX) was 2.52 µM (inactive). The GI50 (SR) was 0.291 µM (active), the GI50 (UO-31) was 1.94 µM (inactive) and the GI50 (NCI-H460) was 1.09 µM (active). For the same compound, the GI50 (UACC-257) was 2.07 µM (inactive), the GI50 (RPMI-8226) was 0.522 µM (active) and the GI50 (HCC 2998) was 1.3 µM (inactive). For the same compound, the GI50 (KM12) was 2.68 µM (inactive), the GI50 (K562) was 0.392 µM (active) and the GI50 (SK-MEL-5) was 1.08 µM (active). For the same compound, the GI50 (SF-539) was 1.08 µM (active), the GI50 (NCI-H226) was 1.69 µM (inactive) and the GI50 (OVCAR-8) was 0.454 µM (active). For the same compound, the GI50 (COLO 205) was 0.138 µM (active).
